Like-named read-outs stand apart in the source and are kept apart here.
How the values were obtained:
[1] = tested on: normal human dermal fibroblasts
Method: Collagen production by near confluent monolayer of dermal fibroblasts was determined by measuring the incorporation of tritiated proline [3H-proline] into bacterial collagenase-sensitive protein [Postlethwaite et al., Proc. Nat. Acad. Sci. (USA) 75:871-875 (1978)] using an extensively modified method of Peterkofsky and Diegelmann, Developmental Biology 28:443-453 (1972). The wells of a six well TC plate (Falcon 3008) were seeded with 5×10^5 fibroblasts and were cultured in DMEM containing 5% FBS for 72 hr at 37° C. (humidified 5% CO2 incubator). The medium was then replaced with serum free DMEM lacking in nonessential amino acids (500 ml), and containing 5 μC L-proline[2,3-3H] (20 Ci/mM, NEN, Boston, Mass.), and the hyperbaric treatments initiated. After 48 and 120 hours, two aliquots (200 ml) of culture supernatant were removed from each well. One aliquot was used to quantitate total protein production as follows: supernatant (200 ml) was added to 0.2 M Tris/0.3 M CaCl2 buffer (pH 7.5, 70 ml), FBS (25 ml),N-ethylmaleimide (NEM, 30 ml), and a 0.75% solution of tannic acid (TA) in 50% trichloroacetic acid 9TCA) (75 ml). […] The filters, placed in scintillation vials containing 5 ml Aquasol (New England Nuclear), were chilled for 4 hr, and counted in a liquid scintillation counter.
The second aliquot of was used to quantitate the noncollagen protein as follows: supernatant (200 ml) was added to 0.2 M Tris/0.3 M CaCl2 buffer (pH 7.5, 50 ml), NEM (30 ml) and bacterial collagenase (20 ml) (Worthington Biochemical Corp., Freehold, N.J.), purified just before use by gel filtration on Sephadex G-200 to remove proteinases. […] The precipitate was collected on glass fiber filters, and the radioactivity was measured by scintillation counting.
De novo synthesized collagen by each fibroblast culture was determined by substracting the noncollagen protein from the total proteins synthesized. Samples were assaved in quadruplicate or triplicate and the data are expressed as mean epm (+SEM) and/or percent of collagen produced relative to control cultures. […]

[2] = tested on: normal human keratinocytes; details: for OUTCOME (neutral red viability): Keratinocytes, Continuous 12 hrs or 90 min/day for 10 days
Method: Human skin pieces (5 cm squares) were incubated at 4° C. in a solution of 20U/ml dispase (Collaborative Research; 5 mg collagen/cm2) in KGM (Keratinocyte Growth Medium, Clonetics Corp.), for 48 hours. The epidermis was separated from the dermis and dispersed in a solution containing 0.025% trypsin and 0.02% EDTA, by incubation at 37° C. and vigorous pipetting, to produce a single cell suspension. The resulting keratinocytes were then plated into tissue culture flasks coated with collagen VII, and cultured in KGM, a serum free defined medium at 37° C. (5% CO2, 97% humidity). […] The cells were harvested with 0.05% trypsin, 0.02% EDTA, and passaged in their respective media or used for construction of dermal and skin equivalents. For experimental treatments the cells were plated into 25 cm tissue culture flasks (T-25), 6 well tissue culture (TC) plates (9.6 cm^2/well), or 4 well TC plates (2 cm^2/well).
(§2) The cells, DEs, or tissue equivalent products, contained in TC plates, were transferred into the treatment chamber, the lids were removed, and the TC plates covered with sterile gauze. […] The treatment pressure was maintained for 90 minutes. At the conclusion, decompression was carried out slowly over a five-minute period, and the treated cultures returned to the CO2 incubator. The treatments were repeated for 2, 5, or 10 consecutive days, and a normal medium change schedule was maintained.
(§3) The cells and equivalents were incubated in 1 ml of neutral red solution (1 mg/ml in appropriate media) for 4 hours at 37° C. The effects on the cells (fibroblasts/keratinocytes) were evaluated microscopically and photographically recorded. The entry of neutral red into the cells signified that they were viable.

[3] = tested on: normal human skin fibroblasts
Method: Dermal fibroblasts were obtained as outgrowths from explanted dermal tissue, after incubation at 37° C. 5% CO2 97% humidity) in DMEM containing 10% FBS. The cells were harvested with 0.05% trypsin, 0.02% EDTA, and passaged in their respective media or used for construction of dermal and skin equivalents. For experimental treatments the cells were plated into 25 cm tissue culture flasks (T-25), 6 well tissue culture (TC) plates (9.6 cm^2/well), or 4 well TC plates (2 cm^2/well).
as §2, §3

HUSE Product = details: for OUTCOME (neutral red viability): HUSE Product, 90 min/day for 10 days
Method: Dermal equivalents, cast in 12 well tissue culture plates, were coated with collagen VII (Collaborative Research; 12 mg collagen/cm^2). Early passage keratinocytes (1.8×10^5cells/cm^2), suspended in KGM (2 mls) were then plated onto DE. The medium was changed after 24 hours, and thereafter at 48 hour intervals. Once a confluent monolayer was formed, the DE were transferred to a wire mesh grids, elevated to the air-liquid interface, and the media was changed to modified KGM containing 1.8 mM CaCl2; once lifted (“lift date” was “Day 0”) the system was considered to be a “developing HUSE product”. The “epidermis” remained at the air-liquid interface and differentiated for the duration of the experiment, the media being changed every 3 days. The HUSE product was considered mature after 14 days of differentiation.
as §2, §3

[4] = 90 minutes, DMEM, KBM
Method: A method similar to that described by Rafi et al., Am. J. Med. Genetics 61:299-303 […] was used to measure the partial pressure of oxygen (pO2) dissolved in the culture medium bathing the cells. To each well of a multiwell tissue culture (TC) plate was added the appropriate culture medium to a depth of 2 mm. The TC plates were then placed in the treatment chamber, the chamber was flushed out with oxygen for five minutes and then pressurized over an additional five minute period. The pressure was maintained for 90 minutes after which time period the treatment chamber was decompressed over a period of five minutes. The TC plates were then removed from the chamber and the pO2 measurement taken within two minutes using a polarographic oxygen electrode (Diamond General Development Corporation, Ann Arbor, Mich.). Dissolution of oxygen at four different pressures was measured in three different media.

[5] = tested on: normal human dermal fibroblasts monolayers; details: for cell proliferation (cell numbers): 90 min./day for ten days
Method: (§1) The cells, DEs, or tissue equivalent products, contained in TC plates, were transferred into the treatment chamber, the lids were removed, and the TC plates covered with sterile gauze. The treatment chamber was sealed, the oxygen (100%) was blown through slowly to expel all the air (2 min.), and the chamber brought up to the appropriate pressure over a period of five minutes. The treatment pressure was maintained for 90 minutes. At the conclusion, decompression was carried out slowly over a five-minute period, and the treated cultures returned to the CO2 incubator. The treatments were repeated for 2, 5, or 10 consecutive days, and a normal medium change schedule was maintained.

[6] = tested on: human skin equivalent product; details: 90 minutes/day for 10 days
Method: as §1

[7] = tested on: normal human keratinocyte monolayers; details: periodic HBO treatment
Method: as §1

[8] = tested on: Fibroblasts in Dermal Eq. on Grids; details: 90 min/day for 10 days
Method: (§4) Dermal equivalents were constructed at 4° C. by mixing 8 parts collagen (Type I acid solubilized, ICN Cellagen®; 3 mg/ml), 1 part of 10×Ham's F-12 medium, 1 part buffer (200 mM HEPES, 25 mM Na2CO3 and 50 mMN NaOH) and inoculating with dermal fibroblasts (1×10^5 cells/ml at 4° C.). For experimental treatments DE were cast in 4 or 12 well tissue culture plates and were maintained at 37° C. in Ham's F-12 Medium containing 5% FBS. Fibroblasts regained their normal morphology within 48 hours, after which DE were maintained in modified Ham's F-12 Medium, changing the media every 48 hours.
as §2, §3

[9] = tested on: Fibroblasts in Dermal Eq. Submerged; details: 90 min/day for 10 days
Method: as §4, §2, §3

Q: For `O=O` [100% O2, oxygen], which collagen synthesis ([1]; 1 atmosphere, after two days of treatment) is on record?
A: elevated

Q: What about the “levels of collagen synthesis” value ([1]; five days vs two days of treatment, all pressure levels) of the same compound?
A: higher after five days of treatment than after two days

Q: And the collagen synthesis ([1]; with increased HBO)?
A: inhibition of collagen synthesis

Q: And the “OUTCOME (neutral red viability)” value ([2]; 760 mm Hg)?
A: Non-Toxic

Q: What about the “OUTCOME (neutral red viability)” value ([2]; 1520 mm Hg) of the same compound?
A: Non-Toxic

Q: And the “OUTCOME (neutral red viability)” value ([2]; 2280 mm Hg)?
A: Non-Toxic

Q: What about the toxicity ([2]; keratinocyte monolayer cultures, any pressure) of the same compound?
A: No toxicity

Q: And the “OUTCOME (neutral red viability)” value ([3]; 3 hrs/day for 5 days, 320 mm Hg)?
A: Non-Toxic

Q: What about the “OUTCOME (neutral red viability)” value ([3]; 3 hrs/day for 5 days, 480 mm Hg) of the same compound?
A: Non-Toxic

Q: And the “OUTCOME (neutral red viability)” value ([3]; 3 hrs/day for 5 days, 760 mm Hg)?
A: Non-Toxic

Q: And the “OUTCOME (neutral red viability)” value ([3]; Continuous 12 hrs, 760 mm Hg)?
A: Non-Toxic

Q: What about the “OUTCOME (neutral red viability)” value ([3]; Continuous 12 hrs, 1520 mm Hg) of the same compound?
A: Some Toxicity

Q: What about the “OUTCOME (neutral red viability)” value ([3]; Continuous 12 hrs, 1520 mm Hg, listed as 100% oxygen) of the same compound?
A: some toxicity

Q: What about the “OUTCOME (neutral red viability)” value ([3]; Continuous 12 hrs, 2280 mm Hg) of the same compound?
A: Some Toxicity

Q: What about the “OUTCOME (neutral red viability)” value ([3]; Continuous 12 hrs, 2280 mm Hg, listed as 100% oxygen) of the same compound?
A: some toxicity

Q: And the “OUTCOME (neutral red viability)” value (HUSE Product; 760 mm Hg)?
A: Non-Toxic

Q: What about the “OUTCOME (neutral red viability)” value (HUSE Product; 1520 mm Hg) of the same compound?
A: Non-Toxic

Q: And the “OUTCOME (neutral red viability)” value (HUSE Product; 2280 mm Hg)?
A: Non-Toxic

Q: What about the “adverse effect on developing HUSE products” value (HUSE Product; up to 3 atmospheres) of the same compound?
A: not adversely affected

Q: And the “MEASURED pO2 (Mean of three readings)” value ([4]; applied O2 pressure 1 atm. - 760 mm Hg, KGM)?
A: 316 mm Hg

Q: What about the “MEASURED pO2 (Mean of three readings)” value ([4]; applied O2 pressure 2 atm. - 1520 mm Hg, KGM) of the same compound?
A: 800 mm Hg

Q: And the “MEASURED pO2 (Mean of three readings)” value ([4]; applied O2 pressure 2.5 atm. - 1900 mm Hg, KGH)?
A: 941 mm Hg

Q: What about the “MEASURED pO2 (Mean of three readings)” value ([4]; applied O2 pressure 3 atm. - 2280 mm Hg, KGM) of the same compound?
A: 1215 mm Hg

Q: What about the “cell proliferation (cell numbers)” value ([5]; 1 atm. Donor) of the same compound?
A: Stimulation of cell proliferation

Q: And the “cell proliferation (cell numbers)” value ([5]; 2.5 atm. Donor)?
A: Stimulation of cell proliferation

Q: What about the “cell proliferation (cell numbers)” value ([5]; 3 atm, donor) of the same compound?
A: consistently non-stimulating and perhaps marginally anti-mitotic

Q: What about the “effect on fibroblast mitosis” value ([5]; oxygen pressures above about three atmospheres) of the same compound?
A: antimitotic

Q: What about the “cornification of the epidermal layer” value [6] of the same compound?
A: particularly stimulated

Q: What about the epidermal thickness ([6]; 1 and 2 atm of 100% oxygen, vs untreated control) of the same compound?
A: progressive increase in epidermal thickness

Q: What about the cell number ([7]; 1 atm.) of the same compound?
A: consistently indistinguishable from the controls

Q: What about the cell number ([7]; 2 atm.) of the same compound?
A: not as mitotic as the latter

Q: What about the cell number ([7]; 2.5 atm.) of the same compound?
A: not as mitotic as the latter

Q: And the cell number ([7]; 3 atm.)?
A: a constant number of cells, well below the numbers obtained in other treatments

Q: And the “OUTCOME (neutral red viability)” value ([8]; 760 mm Hg)?
A: Non-Toxic

Q: And the “OUTCOME (neutral red viability)” value ([8]; 1520 mm Hg)?
A: Some Toxicity

Q: And the “OUTCOME (neutral red viability)” value ([8]; 2280 mm Hg)?
A: Some Toxicity

Q: And the “OUTCOME (neutral red viability)” value ([9]; 760 mm Hg)?
A: Non-Toxic

Q: And the “OUTCOME (neutral red viability)” value ([9]; 1520 mm Hg)?
A: Non-Toxic

Q: And the “OUTCOME (neutral red viability)” value ([9]; 2280 mm Hg)?
A: Non-Toxic

Reference: patent publication US6471958B2, “Non-contracting tissue equivalent” (University of North Texas Health Science Center, priority 1998, dated 2002)
